Laboratory results as given in ChEMBL document CHEMBL5154759, “Discovery of Aryl Benzoyl Hydrazide Derivatives as Novel Potent Broad-Spectrum Inhibitors of Influenza A Virus RNA-Dependent RNA Polymerase (RdRp)” (J Med Chem, 2022).
Calls of active or inactive are those of the source. No cut-off for these calls is given here.

How the values were obtained:
Influenza A virus [1] = test: microbe, parasite or virus in culture; conditions: H5N1, MDCK, 48 h
Influenza A virus [2] = assay type: functional, organism-based; conditions: H5N1, A549, dose 0.018 µM, time 1.0 hrs
Influenza A virus [3] = assay type: functional, organism-based; conditions: H5N1, MDCK, time 12.0 hrs
[4] = Elimination half life in overnight fasted Sprague-Dawley rat at 0.20 ml, iv measured at 0.083 to 24 hrs post dose by LC-MS/MS method; assay type: ADME, organism-based; conditions: in vivo, 0.2 ml, time 0.083-24 hrs, read-out: beta t1/2 (converted)
[5] = Elimination half life in overnight fasted po dosed Sprague-Dawley rat measured at 0.25 to 24 hrs post dose by LC-MS/MS method; assay type: ADME, organism-based; conditions: in vivo, time 0.25-24 hrs, read-out: beta t1/2 (converted)
[6] = Tmax in overnight fasted iv dosed Sprague-Dawley rat plasma measured at 0.083 to 24 hrs post dose by LC-MS/MS method; assay type: ADME, organism-based; conditions: time 0.083-24 hrs
[7] = Tmax in overnight fasted po dosed Sprague-Dawley rat plasma measured at 0.25 to 24 hrs post dose by LC-MS/MS method; assay type: ADME, organism-based; conditions: time 0.25-24 hrs
[8] = Cmax in overnight fasted iv dosed Sprague-Dawley rat plasma measured at 0.083 to 24 hrs post dose by LC-MS/MS method; assay type: ADME, organism-based; design: time upper 24 hrs, time lower 0.083 hrs, route iv
[9] = Cmax in overnight fasted po dosed Sprague-Dawley rat plasma measured at 0.25 to 24 hrs post dose by LC-MS/MS method; assay type: ADME, organism-based; design: time upper 24 hrs, time lower 0.25 hrs, route po
[10] = AUC(0 to t) in overnight fasted iv dosed Sprague-Dawley rat measured at 0.083 to 24 hrs post dose by LC-MS/MS method; assay type: ADME, organism-based; design: time upper 24 hrs, time lower 0.083 hrs, route iv; conditions: in vivo
[11] = AUC(0 to t) in overnight fasted po dosed Sprague-Dawley rat measured at 0.25 to 24 hrs post dose by LC-MS/MS method; assay type: ADME, organism-based; design: time 0.25-24 hrs, route po; conditions: in vivo
[12] = Clearance in overnight fasted iv dosed Sprague-Dawley rat measured at 0.083 to 24 hrs post dose by LC-MS/MS method; assay type: ADME, organism-based; conditions: in vivo, time 0.083-24 hrs
[13] = AUC(0 to infinity) in overnight fasted iv dosed Sprague-Dawley rat measured at 0.083 to 24 hrs post dose by LC-MS/MS method; assay type: ADME, organism-based; design: time 0.083-24 hrs, route iv; conditions: in vivo
[14] = AUC(0 to infinity) in overnight fasted po dosed Sprague-Dawley rat measured at 0.25 to 24 hrs post dose by LC-MS/MS method; assay type: ADME, organism-based; design: time upper 24 hrs, time lower 0.25 hrs, route po; conditions: in vivo
[15] = Bioavailability in overnight fasted iv dosed Sprague-Dawley rat measured at 0.083 to 24 hrs post dose by LC-MS/MS method; assay type: ADME, organism-based; conditions: in vivo, time 0.083-24 hrs
[16] = Oral bioavailability in overnight fasted Sprague-Dawley rat measured at 0.25 to 24 hrs post dose by LC-MS/MS method; assay type: ADME, organism-based; conditions: in vivo, time 0.25-24 hrs
Influenza A virus [17] = assay type: functional, organism-based; conditions: H5N1, MDCK, dose 0.03-100 µM, time 12.0 hrs, DDE = dose-dependent effect
Influenza A virus [18] = assay type: functional, organism-based; conditions: H5N1, MDCK, dose 0.8 µM, time 12.0 hrs
Influenza A virus [19] = assay type: functional; conditions: H5N1, MDCK, time 12 hrs
Influenza A virus [20] = assay type: functional, organism-based; conditions: H5N1, MDCK, dose 1.0 µM, time 48.0 hrs
HEK293T [21] = test: Inhibition of influenza A/WSN/H1N1 virus RNA-dependent RNA polymerase activity in human 293 T cells co-transfected with pPOLI-Fluc assessed as reduction of Fluc/Rluc ratio incubated for 48 hrs; assay type: cell-based; conditions: DDE = dose-dependent effect
HEK293T [22] = test: Inhibition of influenza A/WSN/H1N1 virus RNA-dependent RNA polymerase activity in human 293 T cells co-transfected with pPOLI-Fluc assessed as reduction in luciferase activity incubated for 48 hrs by luciferase reporter gene assay; assay type: cell-based
HEK293T [23] = test: Inhibition of influenza A/WSN/H1N1 virus RNA-dependent RNA polymerase activity in human 293 T cells co-transfected with pPOLI-Fluc assessed as reduction in luciferase activity at 0.01 uM incubated for 48 hrs by luciferase reporter gene assay relative to control; assay type: cell-based
HEK293T [24] = test: Inhibition of influenza A/WSN/H1N1 virus RNA-dependent RNA polymerase activity in human 293 T cells co-transfected with pPOLI-Fluc assessed as reduction in luciferase activity at 0.1 uM incubated for 48 hrs by luciferase reporter gene assay relative to control; assay type: cell-based
[25] = Binding affinity to influenza A virus RNA-dependent RNA polymerase PB1 subunit expressed in human 293T cells assessed as dissociation constant by MST assay; conditions: hek293t
Influenza A virus [26] = assay type: functional, organism-based; conditions: H5N1, MDCK, DDE = dose-dependent effect
Influenza A virus [27] = assay type: functional, organism-based; conditions: H5N1, MDCK
Influenza A virus [28] = assay type: functional, A/PR/8/34; conditions: dose 20 mg/kg; route ig; time 1 hrs
Influenza A virus [29] = assay type: functional, A/PR/8/34; conditions: dose 10 mg/kg; route po; time 1 hrs
[30] = Acute toxicity in BALB/c mouse infected with influenza A virus A/PR/8/34 assessed as reduction in body weight at 2000 mg/kg, po administered 3 times per day; assay type: organism-based; conditions: in vivo
A549 = test: Induction of ROS generation in human A549 cells at 50 ug/ml incubated for 30 mins by DCFH-DA dye based fluorescence microscopy; assay type: functional, cell-based; conditions: dose 50.0 µg/ml
Influenza A virus [31] = assay type: functional, organism-based; conditions: A/Puerto Rico/8/34 (H1N1), MDCK, 48 h
Influenza A virus [32] = assay type: functional, organism-based; conditions: A/Aichi/2/68 (H3N2), MDCK, 48 h
Influenza A virus [33] = assay type: functional, organism-based; conditions: A/Vietnam/1194/2004 (H5N1), MDCK, 48 h
Influenza A virus [34] = assay type: functional, organism-based; conditions: A/Anhui/1/2013 (H7N9), MDCK, 48 h

CCOc1ccc(C(=O)NNc2cccc(Br)c2)cc1
EC50 (Influenza A virus [1]): > 100000 nM

CCCc1ccc(C(=O)NNc2c(Cl)cccc2Cl)cc1
EC50 (Influenza A virus [1]): 190 nM

CCc1ccc(C(=O)NNc2c(Br)cc(Br)cc2Br)cc1
EC50 (Influenza A virus [1]): 4400 nM

CCOc1ccc(C(=O)NNc2c(Br)cccc2Br)cc1
EC50 (Influenza A virus [1]): 34 nM

O=C(NNc1c(Br)cccc1Br)c1ccc(N2CCOCC2)cc1
Activity (Influenza A virus [2]): Active
Activity (Influenza A virus [3]): Active
half-life [4]: 90 min
half-life [5]: 109 min
Tmax [6]: 4.8 min
Tmax [7]: 25.2 min
Cmax [8]: 2520 ng/mL
Cmax [9]: 635 ng/mL
AUC(0-t) [10]: 1480 ng·h/mL
AUC(0-t) [11]: 1590 ng·h/mL
clearance [12]: 33.8 mL/min/kg
AUC(0-inf) [13]: 1500 ng·h/mL
AUC(0-inf) [14]: 1710 ng·h/mL
F [15]: 100%
bioavailability [16]: 32.2%
Activity (Influenza A virus [17]): Dde
Activity (Influenza A virus [18]): Active
inhibition at 0.03 µM (Influenza A virus [19]): > 50%
Activity (Influenza A virus [20]): Active
Activity (HEK293T [21]): Dde
Activity (HEK293T [22]): Active
inhibition (HEK293T [23]): 60%
inhibition (HEK293T [24]): 91%
Kd [25]: 351 nM
Activity (Influenza A virus [26]): Dde
Activity (Influenza A virus [27]): Active
Activity (Influenza A virus [28]): 70%
Activity (Influenza A virus [29]): 100%
Activity [30]: Toxic
Activity (A549): Active
EC50 (Influenza A virus [1]): 18 nM

Nc1ccc(C(=O)NNc2c(Br)cccc2Br)cc1
EC50 (Influenza A virus [1]): 7800 nM

CCc1ccc(C(=O)NNc2c(Br)cccc2Br)cc1
EC50 (Influenza A virus [1]): 78 nM

CCOc1ccc(C(=O)NNc2ccc(Br)cc2Br)cc1
EC50 (Influenza A virus [1]): > 100000 nM

CCOc1ccc(C(=O)NNc2c(C)cccc2Cl)cc1
EC50 (Influenza A virus [1]): 100 nM

CCOc1ccc(C(=O)NNc2ccc(Br)cc2)cc1
EC50 (Influenza A virus [1]): > 100000 nM

O=c1oc2cc(O)cc(O)c2c2ccccc12
EC50 (Influenza A virus [31]): 1700 nM
EC50 (Influenza A virus [32]): 1700 nM
EC50 (Influenza A virus [33]): 1700 nM
EC50 (Influenza A virus [34]): 1700 nM

O=C(NNc1c(Br)cccc1Br)c1ccccc1
EC50 (Influenza A virus [1]): 81000 nM

CCOc1ccc(C(=O)N(C)Nc2c(Cl)cccc2Cl)cc1
EC50 (Influenza A virus [1]): > 100000 nM

O=C(NNc1c(Br)cccc1Br)c1ccc(B(O)O)cc1
EC50 (Influenza A virus [1]): > 100000 nM

COc1ccccc1C(=O)NNc1c(Br)cccc1Br
EC50 (Influenza A virus [1]): > 100000 nM

CN(C)c1ccc(C(=O)NNc2c(Br)cccc2Br)cc1
EC50 (Influenza A virus [1]): 31 nM

Cc1ccc(C(=O)NNc2c(Cl)cccc2Cl)cc1
EC50 (Influenza A virus [1]): 4100 nM

O=C(NNc1c(Br)cccc1Br)c1ccc(-c2ccccc2)cc1
EC50 (Influenza A virus [1]): 83 nM

CCOc1ccc(C(=O)NNc2ccccc2Br)cc1
EC50 (Influenza A virus [1]): > 100000 nM

Cc1cccc(C)c1NNC(=O)c1ccc(C(C)(C)C)cc1
EC50 (Influenza A virus [1]): 220 nM

CN(C)c1ccc(C(=O)NNc2c(Cl)cccc2Cl)cc1
EC50 (Influenza A virus [1]): 46 nM

COc1ccc(C(=O)NNc2c(F)cccc2F)cc1
EC50 (Influenza A virus [1]): > 100000 nM

O=C(NNc1c(Br)cccc1Br)c1ccc(O)cc1
EC50 (Influenza A virus [1]): > 100000 nM

N#Cc1ccc(C(=O)NNc2c(Br)cccc2Br)cc1
EC50 (Influenza A virus [1]): > 100000 nM

NC(=O)c1nc(F)cnc1O
Activity (Influenza A virus [3]): Active

CCOc1ccc(C(=O)NNc2c(F)cccc2F)cc1
EC50 (Influenza A virus [1]): 31000 nM
